# Test results: patent US6964959B2, “Use of a methylol-containing compound to treat tumors” (Carter Wallace, Inc., priority 1999, dated 2005)
# “Also recorded” adds a separate entry of the source.
# Assays:
# PARP = test: Western-blot analysis of PARP cleavage, PA-1 cells; format: cell-based, human; details: 24 h exposure to 50 or 100 μM
# Experimental: Two×10^6 cells were seeded in 150 cm^2 tissue culture flasks. […] After an additional twenty-four hours, cells were harvested, cell number determined, and aliquots derived from equal cell numbers generated from each exposure condition. Total proteins from these whole cell lysates were separated by SDS-PAGE and transferred to nitrocellulose filters. Filters were then immunoblotted to detect intact PARP protein and cleavage fragments by using the clone C-2-10 mouse monoclonal anti-PARP antibody (Zymed Laboratories, San Francisco, Calif.). The resulting protein-antibody complexes were visualized by chemiluminescence techniques.
# Western-blot analysis was used to assess of PARP cleavage. Two×10^6 cells were seeded into separate 75 cm^2 tissue culture flasks containing 20 ml of tissue culture media plus serum. […] Twenty-four hours after the addition of Taurolidine, cells were harvested, cell number determined, and aliquots containing an equal cell number were generated from each exposure condition. Total proteins from whole cell lysates generated from these aliquots were separated by SDS-PAGE and electrotransferred to nitrocellulose filters. Filters were then processed to detect intact PARP protein and cleavage fragments by using the clone C-2-10 mouse monoclonal anti-PARP antibody (Zymed Laboratories, San Francisco, Calif.). […]
# PA-1 = test: Annexin-V FITC binding (phosphotidylserine externalization), PA-1; format: cell-based, human; details: 24 h exposure
# Experimental: Three×10^5 cells were seeded in plastic tissue culture flasks. […] Control cultures received an appropriate volume of Kollidine-17P. After an additional 24 h, cells were harvested and phosphotidylserine externalization determined by assessing Annexin-V FITC binding using cytofluorometric techniques. Each bar represents the mean±SE of four determinations. **p≦0.01, ***p≦0.001
# Cell membrane phosphotidylserine externalization, as a reflection of the potential induction of apoptosis, was assessed by flow cytometry methods using the ApoAlert® Annexin-V/FITC assay kit. Briefly, 1×10^6 cells were incubated for 24 h in tissue culture medium containing serum. […] Control cultures received 5% Kollidon 17PF alone. Twenty-four hours later, all cells were harvested by trypsinization. The harvested cells were resuspended in 200 μl of binding buffer and then incubated for 5-15 min in a solution containing 1 μg/ml Annexin-V FITC at room temperature in the dark. The cells were then analyzed to quantitate Annexin-V binding by cytofluorometric techniques that utilized FACScan using the ModFit LT program with statistical analysis as described above.
# human cancer cell lines = test: Growth inhibition of human cancer cell lines, 3-day exposure; format: cell-based; details: 72 h, read-out: concentration required to inhibit tumor cell growth (IC50)
# Experimental: Parallel studies were carried out to assess whether disruption of cell adhesion played a role in the cytotoxic activity.
smiles,measurement,setting,value
"O=S1(=O)CCN(CN2CCS(=O)(=O)NC2)CN1 [Taurolidine, Bis-(1,1-dioxoperhydro-1,2,4-thiadiazinyl-4)methane]",PARP cleavage,PARP,induced PARP cleavage; also recorded: resulted in PARP cleavage
same,increase in Annexin-V binding (Annexin-V positive cells),PA-1,4 fold
same,IC50,human cancer cell lines,12.5 to 50 µM
